Measurements from article PMC11065314, “Identification of compounds that cause axonal dieback without cytotoxicity in dorsal root ganglia explants and intervertebral disc cells with potential to treat pain via denervation” (PLOS ONE, 2024).
“And” between values parts separate entries of the source, which are not always exact repeats. Identical values can stand only once. Counter-ions that a name gives are not always drawn. Like-named read-outs stand apart in the source and are kept apart here.

Legend:
adult rat DRG explants = assay type: cell-based
[1] = DRG cytotoxicity assessment using LDH assay; assay type: cell-based, rat; conditions: female, rat, rat dorsal root ganglion (DRG) explants, 100 nM, female rat DRG explant, single well
Description: (§1) 500 nM Imy and 10 nM Vcr were excluded from female rat DRG experiments while 500 nM Vcr and 1 mM Pyr were excluded from male rat DRG experiments due to insufficient DRG replicates with axon outgrowth. DRG media was removed from wells and transferred into a 96-well plate for pre-treat LDH cytotoxicity assay (see Methods below). 300 μL of media treatment solutions or solvent control solutions were added to wells. DRGs were incubated with treatment solutions for three days, and brightfield images at 4X magnification were taken using BioTek Cytation1 Plate Imager (Agilent) before treatment (day -1) and on days 1, 2 and 3 after treatment. DRGs from adult male and female rats were tested to determine if sex can affect axonal dieback. In total, 12 to 15 DRG replicates per group by sex harvested from n = 3 male and n = 3 female rats were tested.
(§2) Lactate dehydrogenase (LDH) is a cytosolic enzyme present in all cells. Dissociated rat DRG neurons release LDH during tunicamycin-induced apoptosis. […] An ideal axonal dieback compound should cause axonal degeneration without neurotoxicity. was assessed on day 3 post-treat and normalized to pre-treat levels to account for variability in DRG size and growth and calculated as a percentage of cytotoxicity to lysed DRGs (positive control). 50 μL of pre-treatment and post-treatment media were aliquoted in duplicates into a 96-well plate. LDH activity in the media post-treat was assessed using the CyQUANT^TM LDH Cytotoxicity Assay Kit (Thermo Fisher Scientific, C20301) according to the manufacturer’s instructions. Briefly, 50 μL of Substrate Mix was added to each well and then incubated at room temperature for 30 minutes protected from light. 50 μL of Stop solution was added to each well and the absorbance at 490 nm and 680 nm was measured using a microplate reader (Agilent). LDH activity of each DRG was calculated as the difference between absorbance at 490 nm after subtracting the background absorbance at 680 nm. As a positive control, 13 female rat DRGs and 15 male rat DRGs were treated for three days with Lysis buffer solution, provided in the kit, diluted 1:5.45 in DRG media. The percentage of cytotoxicity was calculated following Eq 2. Pre-treat levels of LDH activity were subtracted from post-treat LDH activity in each DRG to remove baseline LDH activity then percentage of cytotoxicity compared to positive control lysed DRG LDH activity was calculated. Sex is a biological factor that can influence neurotoxicity. Thus, percentage of cytotoxicity of total 11 to 14 DRG replicates per group by sex from n = 3 male and n = 3 female rats were tested.
(§3) Cytotoxicity(%)=(PosttreatLDHactivity)−(PretreatLDHactivity)/(MaximumLDHactivityfromlysedDRGs)−(PretreatLDHactivity)×100% (2)

rat DRG explants = assay: DRG cytotoxicity assessment using LDH assay; assay type: cell-based; conditions: for Cytotoxicity (%): female rat DRG explant, single well
Description: as §1, §2, §3

Human NP cells = assay: NP cell metabolic activity (AlamarBlue reduction); assay type: cell-based;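 on AB reduction per cell (%): percent AlamarBlue reduction per manufacturer divided by estimated total cells per well from LIVE/DEAD counts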
Description: Nucleus pulposus (NP) cells are native matrix-producing cells at the core of intervertebral discs. To repurpose axonal dieback compounds to denervate aberrant nerve fibers in discs related to chronic LBP, the cytocompatibility of these compounds with NP cells must be evaluated. Human NP cells (Sciencell, 4800) from donor 1 (Lot #5954) and donor 2 (Lot# 21579) were cultured according to previously established protocol in our lab adapted from manufacturer’s instructions. Briefly, passage three cells from both donors were expanded in Poly-L-lysine (PLL) (Sciencell, 413) coated T75 flasks. Cells were then lifted and reseeded at 5,000 cells/cm^2 onto two PLL-coated 48-well plates (Greiner Bio-One, 677180) and allowed to attach overnight before treating with Pyr or Vcr. One plate was used for LIVE/DEAD staining and the other plate was used for AlamarBlue assay as described below. Complete NP cell media (Sciencell, 4801) containing basal media supplemented with 1% penicillin-streptomycin, 1% growth supplement and 2% FBS were used for maintaining cells in culture. To mimic the hypoxic disc environment, NP cells were cultured in a hypoxia chamber (Stem Cell Technologies, 27310) with 5% CO2, 3.5% O2, 91.5% N2 (Airgas) during the entire culture and treatment incubation period.
Pyr stock solution was diluted in complete NP media to achieve final concentrations of 500 μM, 1 mM and 2 mM Pyr. 16.9 μg/mL and 169 μg/mL Vcr stock solutions were prepared in 1X PBS then diluted in complete NP media to achieve final concentrations of 10, 25, 50, 100 nM and 200, 500 nM, respectively. Cells were incubated with 250 μL of final treatment solutions in duplicate wells per donor for three days. Cells in negative control group were incubated with 250 μL of complete NP media with 0.55% v/v 1X PBS as solvent control. On day 3 post-treatment, brightfield images at 4X magnification were taken using a BioTek Cytation1 Plate Imager (Agilent) to verify cell proliferation and observe cell morphology. Three experimental replicates were performed for each cell donor.
On day 3 of incubation with drugs, 25 μL (10% v/v of media volume) of AlamarBlue HS cell viability reagent (Thermo Fisher Scientific, A50100) were added into each well. Cells were incubated with the AlamarBlue reagent for 2 hours at 37°C under hypoxia then 60 μL aliquots of cell media were removed in duplicates into a 96-well plate. The absorbance at 570 and 600 nm were read using a microplate reader (Agilent) and calculations for AlamarBlue reduction were calculated according to the manufacturer’s protocol. To account for different cell confluency between donors and groups, AlamarBlue reduction was normalized to estimated total number of cells per well obtained from LIVE/DEAD staining. Cellular metabolic activity in treated groups was reported as a ratio of normalized AlamarBlue reduction to PBS control group.

[2] = test system: dissociated DRG neurons from embryonic mice; parameters: method as in PMID 31484833; conditions: 40 nM; cited from earlier work
adult rat DRG neurons = test system: adult rat DRG neurons; parameters: method as in PMID 32388569; conditions: below 1000 nM; cited from earlier work
[3] = systemic administration; cited from earlier work

## CC[C@]1(O)C[C@H]2CN(CCc3c([nH]c4ccccc34)[C@@](C(=O)OC)(c3cc4c(cc3OC)N(C=O)[C@H]3[C@@](O)(C(=O)OC)[C@H](OC(C)=O)[C@]5(CC)C=CCN6CC[C@]43[C@@H]65)C2)C1 [Vcr, vincristine sulfate]
Adult rat DRG explants
  Axon length ratio compared to PBS control: significantly lower axon length ratio than PBS control
  Day on which Caps axon length ratio threshold (0.45) was met: ≤ 1 days
  Original axon length left behind: less than 8.1%
Adult rat DRG explants; 100 nM
  Day on which Caps axon length ratio threshold (0.45) was met: ≤ 2 days
[1]
  cytotoxicity at 3 days, 0.1 µM: 15.5%
Rat DRG explants; 1 nM, 0.001 µM
  Cytotoxicity (%): 6.189% and 9.7112% and 4.38%
Rat DRG explants; 10 nM, day 3, male rat DRGs only, relative to lysed DRGs
  Percentage of DRG cytotoxicity, Mean (SD): 7.02 (4.36) %
Rat DRG explants; 100 nM, day 3
  Percentage of cytotoxicity less than lysed DRGs: 89.8%
Rat DRG explants; 100 nM, 0.1 µM
  Cytotoxicity (%): 11.901%
Rat DRG explants; 500 nM, 0.5 µM
  Cytotoxicity (%): 7.521% and 12.2818% and 15.3285%
Rat DRG explants; all concentrations tested, day 3
  Overall cytotoxicity lower compared to lysed DRGs: at least 88%
Human NP cells; 10 nM, donor 1, day 3, single wells (Exp, Rep)
  AB reduction per cell (%): 0.002283% and 0.00154% and 0.001747% and 0.002442% and 0.00231% and 0.002706%
Human NP cells; 10 nM, donor 2, day 3, single wells (Exp, Rep)
  AB reduction per cell (%): 0.001215% and 0.001339% and 0.005412% and 0.01334% and 0.005031% and 0.005908%
Human NP cells; 25 nM, donor 1, day 3, single wells (Exp, Rep)
  AB reduction per cell (%): 0.001389% and 0.003739% and 0.002704% and 0.002205% and 0.001365% and 0.001406%
Human NP cells; 25 nM, donor 2, day 3, single wells (Exp, Rep)
  AB reduction per cell (%): 0.003051% and 0.007629% and 0.005557% and 0.004909% and 0.001181% and 0.0009857%
Human NP cells; 50 nM, donor 1, day 3, single wells (Exp, Rep)
  AB reduction per cell (%): 0.001753% and 0.001156% and 0.00138% and 0.00139% and 0.003609% and 0.003175%
Human NP cells; 50 nM, donor 2, day 3, single wells (Exp, Rep)
  AB reduction per cell (%): 0.0005415% and 0.0008201% and 0.002435% and 0.002975% and 0.005792% and 0.00531%
Human NP cells; 100 nM, donor 1, day 3, single wells (Exp, Rep)
  AB reduction per cell (%): 0.001416% and 0.0009649% and 0.001537% and 0.002073% and 0.00337% and 0.003265%
Human NP cells; 100 nM, donor 2, day 3, single wells (Exp, Rep)
  AB reduction per cell (%): 0.0006846% and 0.0007833% and 0.00204% and 0.002057% and 0.009145% and 0.008838%
Human NP cells; 200 nM, donor 1, day 3, single wells (Exp, Rep)
  AB reduction per cell (%): 0.001363% and 0.0008921% and 0.002395% and 0.003983% and 0.00365% and 0.004535%
Human NP cells; 200 nM, donor 2, day 3, single wells (Exp, Rep)
  AB reduction per cell (%): 0.0005853% and 0.0004556% and 0.002302% and 0.00249% and 0.005313% and 0.004842%
Human NP cells; 500 nM, donor 1, day 3, single wells (Exp, Rep)
  AB reduction per cell (%): 0.001679% and 0.00128% and 0.002381% and 0.004274% and 0.005712% and 0.005618%
Human NP cells; 500 nM, donor 2, day 3, single wells (Exp, Rep)
  AB reduction per cell (%): 0.0008561% and 0.0008471% and 0.004331% and 0.0268% and 0.00643% and 0.009026%
Human NP cells; 10 to 500 nM, donor 1 and 2, day 3
  Cellular metabolic activity compared to PBS control: No significant differences were detected
[2]
  Time to axon degeneration: ≤ 12 h
  Time to complete axon fragmentation: ≤ 36 h
Adult rat DRG neurons
  Cytotoxicity: does not induce cytotoxicity
[3]
  Chemotherapy patients developing peripheral neuropathy: 96%
